Biological target: T1, hSTING (Homo sapiens, UniProt Q86WV6, G230A/H232R/R293Q/R71H)
T1 construct: host or cells: THP1-Dual KO-IFNAR2 cells
Assay: STING reporter assay (luciferase) in THP1-Dual KO-IFNAR2 cells stimulated with 2′3′cGAMP
Type: cell-based
Conditions: 2′3′cGAMP 15 μM, 24 h
Protocol: STING pathway activation by the compounds described herein was measured using THP1-Dual™ cells (KO-IFNAR2).
THP1-Dual™ KO-IFNAR2 Cells (obtained from invivogen) were maintained in RPMI, 10% FCS, 5 ml P/S, 2 mM L-glut, 10 mM Hepes, and 1 mM sodium pyruvate. Compounds were spotted in empty 384 well tissue culture plates (Greiner 781182) by Echo for a final concentration of 0.0017-100 μM. Cells were plated into the TC plates at […], 2×10E6 cells/mL. For activation with STING ligand, 2′3′cGAMP (MW 718.38, obtained from Invivogen), was prepared in Optimem media.
The following solutions were prepared for each 1×384 plate: • Solution A: 2 mL Optimem with one of the following stimuli: • […] • Solution B: 2 mL Optimem with 60 μL Lipofectamine 2000->Incubate 5 min at RT
2 mL of solution A and 2 ml Solution B was mixed and incubated for 20 min at room temperature (RT). 20 uL of transfection solution (A+B) was added on top of the plated cells, with a final 2′3′cGAMP concentration of 15 μM. The plates were then centrifuged immediately at 340 g for 1 minute, after which they were incubated at 37° C., 5% CO2, >98% humidity for 24 h. Luciferase reporter activity was then measured. EC50 values were calculated by using standard methods known in the art.
Luciferase reporter assay: 10 μL of supernatant from the assay was transferred to white 384-plate with flat bottom and squared wells. One pouch of QUANTI-Luc™ Plus was dissolved in 25 mL of water. 100 μL of QLC Stabilizer per 25 mL of QUANTI-Luc™ Plus solution was added. 50 μL of QUANTI-Luc™ Plus/QLC solution per well was then added. Luminescence was measured on a Platereader (e.g., Spectramax I3X (Molecular Devices GF3637001)).
Luciferase reporter activity was then measured. EC50 values were calculated by using standard methods known in the art.

T1 sequence (Q86WV6 whole entry R71H/G230A/H232R/R293Q): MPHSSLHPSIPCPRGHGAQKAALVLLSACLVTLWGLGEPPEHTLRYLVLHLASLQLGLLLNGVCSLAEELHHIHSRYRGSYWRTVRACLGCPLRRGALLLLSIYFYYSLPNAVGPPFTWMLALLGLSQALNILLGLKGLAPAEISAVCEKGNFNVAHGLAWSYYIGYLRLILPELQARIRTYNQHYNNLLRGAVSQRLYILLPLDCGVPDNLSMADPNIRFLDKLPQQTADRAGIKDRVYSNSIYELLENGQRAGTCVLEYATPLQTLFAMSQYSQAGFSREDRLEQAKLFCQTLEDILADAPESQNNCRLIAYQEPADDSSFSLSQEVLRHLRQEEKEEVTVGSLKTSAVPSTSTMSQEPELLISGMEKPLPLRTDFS

Row | Compound | EC50 (class symbols) [µM] | EC50 (numeric bounds) [µM]
1 | O=C(Nc1ccc(C2CCC(F)(F)CC2)nc1)Nc1c[nH]c2ncc(-c3cccc(CO)c3)cc12 [Compound 105, 1-(6-(4,4-difluorocyclohexyl)pyridin-3-yl)-3-(5-(3-(hydroxymethyl)phenyl)-1H-pyrrolo[2,3-b]pyridin-3-yl)urea] | 5 to 100 | 
2 | O=C(Nc1cnc(N2CCC(F)(F)CC2)c(CCO)c1)Nc1c[nH]c2ncc(F)cc12 [Compound 147, 1-(6-(4,4-difluoropiperidin-1-yl)-5-(2-hydroxyethyl)pyridin-3-yl)-3-(5-fluoro-1H-pyrrolo[2,3-b]pyridin-3-yl)urea] | 5 to 100 | 
3 | Cc1cc(NC(=O)Nc2c[nH]c3cccnc23)cnc1C1CCC(F)(F)CC1 [Compound 136, 1-(6-(4,4-difluorocyclohexyl)-5-methylpyridin-3-yl)-3-(1H-pyrrolo[3,2-b]pyridin-3-yl)urea] | 5 to 100 | 
4 | CC(O)c1cc(NC(=O)Nc2c[nH]c3ncc(F)cc23)cnc1N1CCC(F)(F)CC1 (centres unmarked) [Compound 138, 1-(6-(4,4-difluoropiperidin-1-yl)-5-(1-hydroxyethyl)pyridin-3-yl)-3-(5-fluoro-1H-pyrrolo[2,3-b]pyridin-3-yl)urea] | 1 to 5 | 
5 | O=C(Nc1ccc(NC2CCC2)nc1)Nc1c[nH]c2ncc(F)cc12 [Compound 112, 1-(6-(cyclobutylamino)pyridin-3-yl)-3-(5-fluoro-1H-pyrrolo[2,3-b]pyridin-3-yl)urea] | 1 to 5 | 
6 | CC(C)(C)OC(=O)N1CCCC(n2cc(NC(=O)Nc3ccc(C4CCC(F)(F)CC4)nc3)c3cc(F)cnc32)C1 (centres unmarked) [Compound 102, tert-butyl 3-(3-(3-(6-(4,4-difluorocyclohexyl)pyridin-3-yl)ureido)-5-fluoro-1H-pyrrolo[2,3-b]pyridin-1-yl)piperidine-1-carboxylate] | 5 to 100 | 
7 | O=C(Nc1ccc(N2CCC(F)(F)CC2)nc1)Nc1c[nH]c2ncc(F)cc12 [Compound 118, 1-(6-(4,4-difluoropiperidin-1-yl)pyridin-3-yl)-3-(5-fluoro-1H-pyrrolo[2,3-b]pyridin-3-yl)urea] | 0.2 to 1 | 
8 | O=C(Nc1ccc(C2CCC(F)(F)CC2)nc1)Nc1cn(C(=O)c2ccccc2)c2ncc(F)cc12 [Compound 121, 1-(1-benzoyl-5-fluoro-1H-pyrrolo[2,3-b]pyridin-3-yl)-3-(6-(4,4-difluorocyclohexyl)pyridin-3-yl)urea] | 0.2 to 1 | 
9 | O=C(Nc1ccc(C2CCC(O)CC2)nc1)Nc1c[nH]c2ncc(F)cc12 (centres unmarked) [Compound 114, 1-(5-fluoro-1H-pyrrolo[2,3-b]pyridin-3-yl)-3-(6-(4-hydroxycyclohexyl)pyridin-3-yl)urea] |  | > 100
10 | COc1ccc2[nH]cc(NC(=O)Nc3cnc(N4CCC(F)(F)CC4)c(Cl)c3)c2n1 [Compound 141, 1-(5-chloro-6-(4,4-difluoropiperidin-1-yl)pyridin-3-yl)-3-(5-methoxy-1H-pyrrolo[3,2-b]pyridin-3-yl)urea] | 0.2 to 1 | 
11 | O=C(Nc1ccc(C2CCC(F)(F)CC2)nc1)Nc1c[nH]c2ncc(F)cc12 [Compound 116, 1-(6-(4,4-difluorocyclohexyl)pyridin-3-yl)-3-(5-fluoro-1H-pyrrolo[2,3-b]pyridin-3-yl)urea] | 0.2 to 1 | 
12 | Cn1cc(-n2cc(NC(=O)Nc3ccc(C4CCC(F)(F)CC4)nc3)c3cc(F)cnc32)cn1 [Compound 125, 1-(6-(4,4-difluorocyclohexyl)pyridin-3-yl)-3-(5-fluoro-1-(1-methyl-1H-pyrazol-4-yl)-1H-pyrrolo[2,3-b]pyridin-3-yl)urea] |  | > 30

Continued, values first:

Row | EC50 (class symbols) [µM] | EC50 (numeric bounds) [µM] | Compound
13 | 0.2 to 1 |  | O=C(Nc1cnc(N2CCC(F)(F)CC2)c(Cl)c1)Nc1c[nH]c2ccc(OCC(F)(F)F)nc12 [Compound 208, 1-(5-chloro-6-(4,4-difluoropiperidin-1-yl)pyridin-3-yl)-3-(5-(2,2,2-trifluoroethoxy)-1H-pyrrolo[3,2-b]pyridin-3-yl)urea]
14 | 0.2 to 1 |  | O=C(Nc1cnc(N2CCC(F)(F)CC2)nc1)Nc1c[nH]c2ncc(F)cc12 [Compound 190, 1-(2-(4,4-difluoropiperidin-1-yl)pyrimidin-5-yl)-3-(5-fluoro-1H-pyrrolo[2,3-b]pyridin-3-yl)urea]
15 | 0.2 to 1 |  | O=C(Nc1cnc(C2CCC(F)(F)CC2)c(F)c1)Nc1c[nH]c2cccnc12 [Compound 234, 1-(6-(4,4-difluorocyclohexyl)-5-fluoropyridin-3-yl)-3-(1H-pyrrolo[3,2-b]pyridin-3-yl)urea]
16 | 5 to 100 |  | O=C(Nc1cnc(C2CCC(F)(F)CC2)c(CO)c1)Nc1c[nH]c2ncc(F)cc12 [Compound 158, 1-(6-(4,4-difluorocyclohexyl)-5-(hydroxymethyl)pyridin-3-yl)-3-(5-fluoro-1H-pyrrolo[2,3-b]pyridin-3-yl)urea]
17 |  | > 30 | Cc1cc(NC(=O)Nc2c[nH]c3ncc(F)cc23)cnc1N1CC2(CC(O)C2)C1 [Compound 156, 1-(5-fluoro-1H-pyrrolo[2,3-b]pyridin-3-yl)-3-(6-(6-hydroxy-2-azaspiro[3.3]heptan-2-yl)-5-methylpyridin-3-yl)urea]
18 | 0.04 to 0.2 |  | O=C(Nc1cc(Cl)c(C2CCC(F)(F)CC2)cn1)Nc1c[nH]c2ncc(F)cc12 [Compound 152, 1-(4-chloro-5-(4,4-difluorocyclohexyl)pyridin-2-yl)-3-(5-fluoro-1H-pyrrolo[2,3-b]pyridin-3-yl)urea]
19 | 0.2 to 1 |  | O=C(Nc1cnc(N2CCC(F)(F)CC2)c(F)c1)Nc1c[nH]c2cccnc12 [Compound 230, 1-(6-(4,4-difluoropiperidin-1-yl)-5-fluoropyridin-3-yl)-3-(1H-pyrrolo[3,2-b]pyridin-3-yl)urea]
20 | 0.2 to 1 |  | COCCOc1ccc2[nH]cc(NC(=O)Nc3cnc(C4CCC(F)(F)CC4)c(F)c3)c2n1 [Compound 210, 1-(6-(4,4-difluorocyclohexyl)-5-fluoropyridin-3-yl)-3-(5-(2-methoxyethoxy)-1H-pyrrolo[3,2-b]pyridin-3-yl)urea]
21 | 0.2 to 1 |  | COc1ccc2[nH]cc(NC(=O)Nc3cnc(C4CCC(F)(F)CC4)c(F)c3)c2n1 [Compound 229, 1-(6-(4,4-difluorocyclohexyl)-5-fluoropyridin-3-yl)-3-(5-methoxy-1H-pyrrolo[3,2-b]pyridin-3-yl)urea]
22 | 0.04 to 0.2 |  | N#Cc1cc(NC(=O)Nc2c[nH]c3ncc(F)cc23)cnc1C1CCC(F)(F)CC1 [Compound 155, 1-(5-cyano-6-(4,4-difluorocyclohexyl)pyridin-3-yl)-3-(5-fluoro-1H-pyrrolo[2,3-b]pyridin-3-yl)urea]
23 | 0.2 to 1 |  | CCc1cc(NC(=O)Nc2c[nH]c3ncc(F)cc23)cnc1N1CCC(F)(F)CC1 [Compound 163, 1-(6-(4,4-difluoropiperidin-1-yl)-5-ethylpyridin-3-yl)-3-(5-fluoro-1H-pyrrolo[2,3-b]pyridin-3-yl)urea]
24 | 5 to 100 |  | CC1(C)CN(c2ncc(NC(=O)Nc3c[nH]c4cccnc34)cc2Cl)CCO1 [Compound 241, 1-(5-chloro-6-(2,2-dimethylmorpholino)pyridin-3-yl)-3-(1H-pyrrolo[3,2-b]pyridin-3-yl)urea]
25 | 0.2 to 1 |  | COc1ccc2[nH]cc(NC(=O)Nc3cnc(N4CCC5(CC4)CC(F)(F)C5)c(Cl)c3)c2n1 [Compound 203, 1-(5-chloro-6-(2,2-difluoro-7-azaspiro[3.5]nonan-7-yl)pyridin-3-yl)-3-(5-methoxy-1H-pyrrolo[3,2-b]pyridin-3-yl)urea]
26 | 0.2 to 1 |  | Cc1cc(NC(=O)Nc2c[nH]c3ncc(F)cc23)cnc1N1CC(F)(F)C1 [Compound 171, 1-(6-(3,3-difluoroazetidin-1-yl)-5-methylpyridin-3-yl)-3-(5-fluoro-1H-pyrrolo[2,3-b]pyridin-3-yl)urea]

— patent US20230115274A1, “COMPOUNDS AND COMPOSITIONS FOR TREATING CONDITIONS ASSOCIATED WITH STING ACTIVITY” (IFM Due, Inc., priority 2019, published 2023)
